Marks after values point to notes of the source that are not given here.
How the values were obtained:
[1] = MTT cell viability assay in HEK cells; type: cell-based, human; settings: human; for viability at 24 h, 10 µM: mean ± SEM; for cytotoxicity at 24 h, 10 µM: compounds discarded, read-out: cell viability affected by
Protocol: (§1) With this approach, 24 oxadiazole-bearing pyrazoles were synthesized and tested in human embryonic kidney (HEK) cells for SOCE inhibition. To this aim, intracellular Ca^2+ stores of HEK cells were emptied with t-butylhydroquinone (tBhQ, 50 μM) in the presence of the compounds at 10 μM concentration. After 600 s, Ca^2+ was added and intracellular levels were measured in fluorescence microscopy with the calcium dye Fura-2. […] For these compounds, the cell viability was therefore evaluated. An MTT assay was performed and the compounds that affected cell viability by more than 25% at 10 μM were discarded (23, 31, and 33). […] According to both activity and cytotoxicity, for the selected five compounds, the representative traces are depicted in Figure 3. […]
(§2) 3-(4,5-Dimethylthiazol-2-yl)-2,5-diphenyltetrazolium bromide (MTT) assay Hek cells were plated in 24-wells plate at 20.000 cells per well. After 24 h, cells were treated for other 24 h with the selected compounds. At the end of treatments, medium was removed and substituted by 300 µL of MTT reagent at the final concentration of 0.25 mg/mL for 60 min at 37 °C. Reactions were then stopped and the crystals were solubilized by adding isopropyl alcohol/HCl (1:1; vol:vol) (Sigma-Aldrich Inc., Italy), before reading the absorbance at 570 nm, using the multi-plate reader Victor 3V (PerkinElmer, Milan, Italy). […]
(§3) All statistical assessments were two-sided and a value of P <0.05 was considered statistically significant. Statistical analyses were performed using GraphPad Prism software (GraphPad Software, Inc., USA).

[2] = test system: Store-operated calcium entry (SOCE); assay: SOCE in HEK cells, tBhQ store depletion and Ca2+ re-addition, Fura-2 calcium imaging; type: cell-based, human; settings: Homo sapiens; for activity at 10 µM: HEK293, compound 10 μM, tBhQ 50 μM, vs control, mean ± SEM of three experiments, read-out: % SOCE residual activity (10 μM); for IC50: HEK293, mean ± SEM
Protocol: With this approach, 24 oxadiazole-bearing pyrazoles were synthesized and tested in human embryonic kidney (HEK) cells for SOCE inhibition. […] After 600 s, Ca^2+ was added and intracellular levels were measured in fluorescence microscopy with the calcium dye Fura-2. […] For these compounds, the cell viability was therefore evaluated. An MTT assay was performed and the compounds that affected cell viability by more than 25% at 10 μM were discarded (23, 31, and 33). […] According to both activity and cytotoxicity, for the selected five compounds, the representative traces are depicted in Figure 3.
Human embryonic kidney (Hek) cells were obtained from ATCC (Rockville, MD, USA) and were cultured in Dulbecco’s Modified Eagle’s Medium (DMEM; Sigma-Aldrich, Italy), supplemented with 10% heat-inactivated FBS (Gibco, Italy), L-glutamine […] (Sigma-Aldrich, Italy), 10 U/mL penicillin, and […] streptomycin (Sigma-Aldrich, Italy) at 37 °C, under a 5% CO2 humidified atmosphere. […]
(KRB, 135 mM NaCl, 5 mM KCl, 0.4 mM KH2PO4, 1 mM MgSO4, 5.5 mM glucose, 20mM HEPES, pH 7.4) containing 2 mM CaCl2 (30 min, room temperature). After which, cells were washed and incubated with KRB for other 30 min to allow de-esterification of […]. To measure SOCE, cells were depleted of calcium in the endoplasmic reticulum with 2,5-t-butylhydroquinone (tBhQ, 50 […]
For calcium imaging experiments, Hek cells were plated onto pre-treated poli-L-lysine (P4832, Sigma-Aldrich, Italy) glass coverslips of 24 mm in 6-well plates Cells were loaded with 5 µM of Fura-2 AM, 0.02% of Pluronic-127 (Life technologies, Italy) and 10 µM of sulfinpyrazone (Sigma-Aldrich, Italy) in KRB containing 2 mM CaCl2 for 30 min at RT. Cells were then washed once with KRB for 15 min for de-esterification of Fura-2 AM.
Coverslips were mounted into the acquisition chamber and placed on the stage of a Leica DMI6000 epifluorescent microscope equipped with S Fluor ×40/1.3 objective. Fura-2 AM was excited by alternate 340 and 380 nm using a Polychrome IV monochromator (Till Photonics, Germany), and the probe emission light was filtered through 520/20 bandpass filter and collected by a cooled CCD camera (Hamamatsu, Japan). The fluorescence signals were acquired and processed using MetaFluor software (Molecular Device, Sunnyvale, CA, USA). To quantify the differences in the amplitudes of Ca2+ transients, the ratio values were normalized using the formula ΔF/F0. […]
In calcium imaging experiments, data are presented as Mean +/- standard error (SEM) or Median and interquartile range (IQR). The normality of data distributions was assessed using the Shapiro−Wilk test. Nonparametric (Mann−Whitney U test and one-way) statistical analysis was used for comparisons of data. All statistical assessments were two-sided and a value of P <0.05 was considered statistically significant. Statistical analyses were performed using GraphPad Prism software (GraphPad Software, Inc., USA).

[3] = test system: HEK cells; assay: MTT cell viability assay in HEK cells; type: cell-based, human; settings: 10 μM
Protocol: as §1, §2, §3

[4] = In vitro hepatic metabolic stability in MLS9 fraction with NADPH; type: in vitro ADME, mouse; settings: after 1 h of incubation
Protocol: The five selected inhibitors (22, 27, 29, 32, and 42) and the identified SOCE enhancer (37) were then evaluated for their in vitro hepatic metabolic stability. To this aim, the candidates were incubated in MLS9 fraction supplied with NADPH and the residual substrate was measured after 1 h. Under these conditions, the oxadiazole-bearing pyrazoles resulted overall metabolically stable, with only two compounds affording a residual substrate lower than 80% and the remaining molecules higher than 90% after incubation (Table 1 and Supporting Information). In contrast, Pyr3 and CIC-37, which suffered from hydrolysis of the ester function, provided a residual substrate of 43 and 74%, respectively (Table 1).[35] Similarly, the residual substrate of Synta66 in MLM is of 15%, due to an important hydrolysis of the amide group, absent in our class (Table 1).[39]
In vitro metabolism and purity of lead compounds
In vitro metabolism studies
Mouse liver S9 (MLS9) (pooled male mouse CD-1, protein concentration: 20 mg/mL) were purchased from Corning B.V. Life Sciences (Amsterdam, The Netherlands) and used throughout this study. The standard incubation mixture (250 μL final volume) was carried out in a 50 mM TRIS (tris[hydroxymethyl]-aminomethane) + 150 mM KCl buffer (pH 7.4) containing 3.3 mM MgCl2, 1.3 mM β-NADP-Na 2, 3.3 mM glucose 6-phosphate, 0.4 Units/mL glucose 6-phosphate dehydrogenase (NADPH regenerating system), 5 μL of acetonitrile ([…]), and the substrate compounds at a concentration of 50 µM. After pre-equilibration of the mixture, an appropriate volume of MLS9 suspension was added to give a final protein concentration of 1.5 mg/mL. The mixture was shaken for 60 min at 37 °C. Each incubation was stopped by addition of 250 μL of ice-cold acetonitrile, vortexed, and centrifuged at 13000 rpm for 10 min. Control incubations were carried out without the presence of MLS9 suspension or cofactors or in absence of the substrate.
LC-UV method for purity and metabolic stability data determination: a Shimadzu HPLC system (Shimadzu, Kyoto, Japan), consisting of two LC-10AD Vp module pumps, an SLC-10A Vp system controller, an SIL-10AD Vp autosampler, and a DGU-14-A on-line degasser were used for the analysis. The SPD-M10Avp photodiode array detector was used to detect the analytes. LC-Solution 1.24 software was used to process the chromatograms.
• Column: Phenomenex Kinetex XB C18, 150 × 4.6 mm (5 µm d.p.) protected with a SecurityGuard® (Torrance, CA, USA).
A: 0.2% formic acid in water;
B: 0.2% formic acid in acetonitrile.

For `CCCC(C)OC(=O)c1cnn(-c2ccc(-n3cc(-c4cccc(C(=O)O)c4)nn3)cc2)c1C(F)(F)F` (centres unmarked) [CIC-37, reference compound], the viability at 24 h, 10 µM [1] was 93.6 ± 4.6%, the activity at 10 µM [2] was 17.5 ± 1.6% and the IC50 [2] was 4.4 ± 1.2 µM.

For `CCOC(=O)c1cnn(-c2ccc(NC(=O)C(Cl)=C(Cl)Cl)cc2)c1C(F)(F)F` [Pyr3, reference compound], the viability at 24 h, 10 µM [1] was 28.6 ± 0.5%, the activity at 10 µM [2] was 8.9 ± 0.6% and the IC50 [2] was 0.5 ± 0.1 µM.

Work on `COc1ccc(OC)c(-c2ccc(NC(=O)c3ccncc3F)cc2)c1` [Synta66, reference compound] yielded a viability at 24 h, 10 µM [1] of 75.8 ± 8%, an activity at 10 µM [2] of 9.2 ± 1.7% and an IC50 [2] of 0.2 ± 0.3 µM.

For `Cc1noc(-c2cnn(-c3ccc(NC(=O)c4cccc(C(=O)O)c4)cc3)c2C(F)(F)F)n1` [compound 19], the activity at 10 µM [2] was 77.2 ± 3.7%.

`Cc1noc(-c2cnn(-c3ccc(NC(=O)c4ccncc4F)cc3)c2C(F)(F)F)n1` [compound 20] gave an activity at 10 µM [2] of 53.6 ± 0.9%.

`Cc1noc(-c2cnn(-c3ccc(NC(=O)c4c(C)cccc4F)cc3)c2C(F)(F)F)n1` [compound 21] showed an activity at 10 µM [2] of 56.7 ± 1.3%.

In the case of `Cc1noc(-c2cnn(-c3ccc(NC(=O)c4c(F)cccc4F)cc3)c2C(F)(F)F)n1` [compound 22], the cytotoxicity [3] is reported as “not cytotoxic”, the viability at 24 h, 10 µM [1] is reported as 95.6 ± 8.5% and the “MLS9 stability (residual substrate)” value [4] is reported as greater than 99% ^b. The activity at 10 µM [2] was 38.6 ± 4.3% and the IC50 [2] was 3.1 ± 1.4 µM.

`Cc1noc(-c2cnn(-c3ccc(NC(=O)c4ccc(Cl)cc4)cc3)c2C(F)(F)F)n1` [compound 23] showed a cytotoxicity at 24 h, 10 µM [1] greater than 25%, a viability at 24 h, 10 µM [1] of 72.9 ± 11.7% and an activity at 10 µM [2] of 40.8 ± 3.6%.

`Cc1noc(-c2cnn(-c3ccc(NC(=O)Cc4ccc(Cl)cc4)cc3)c2C(F)(F)F)n1` [compound 24] showed an activity at 10 µM [2] of 121 ± 2.2%.

In the case of `Cc1noc(-c2cnn(-c3ccc(NC(=O)c4ccc(C(F)(F)F)cc4)cc3)c2C(F)(F)F)n1` [compound 25], the activity at 10 µM [2] is reported as 110 ± 5.9%.

Work on `Cc1noc(-c2cnn(-c3ccc(NC(=O)c4ccc(C(O)(C(F)(F)F)C(F)(F)F)cc4)cc3)c2C(F)(F)F)n1` [compound 26] yielded an activity at 10 µM [2] of 109 ± 6.5%.

In the case of `Cc1noc(-c2cnn(-c3ccc(NC(=O)c4ccc([N+](=O)[O-])cc4)cc3)c2C(F)(F)F)n1` [compound 27], the cytotoxicity [3] is reported as “not cytotoxic”, the viability at 24 h, 10 µM [1] is reported as 80.2 ± 7.4% and the “MLS9 stability (residual substrate)” value [4] is reported as greater than 99% ^b. It also gave an activity at 10 µM [2] of 40.8 ± 6.9% and an IC50 [2] of 5.5 ± 0.8 µM.

`Cc1noc(-c2cnn(-c3ccc(NC(=O)Cc4ccc([N+](=O)[O-])cc4)cc3)c2C(F)(F)F)n1` [compound 28] showed an activity at 10 µM [2] of 108 ± 3.9%.

In the case of `Cc1noc(-c2cnn(-c3ccc(NC(=O)c4ccc(C#N)c(F)c4)cc3)c2C(F)(F)F)n1` [compound 29], the cytotoxicity [3] is reported as “not cytotoxic”, the viability at 24 h, 10 µM [1] is reported as 101 ± 6.7% and the “MLS9 stability (residual substrate)” value [4] is reported as 73% ^b. The activity at 10 µM [2] was 49.6 ± 6.5% and the IC50 [2] was 9.7 ± 2.3 µM.

In the case of `Cc1noc(-c2cnn(-c3ccc(NC(=O)c4ccccc4I)cc3)c2C(F)(F)F)n1` [compound 30], the activity at 10 µM [2] is reported as 53.2 ± 3.9%.

Molecule `Cc1noc(-c2cnn(-c3ccc(NC(=O)c4ccc5nc[nH]c5c4)cc3)c2C(F)(F)F)n1` [compound 31] has a cytotoxicity at 24 h, 10 µM [1] greater than 25%, a viability at 24 h, 10 µM [1] of 56.5 ± 2.5% and an activity at 10 µM [2] of 47.4 ± 1%.

In the case of `Cc1noc(-c2cnn(-c3ccc(NC(=O)c4c(C)noc4C)cc3)c2C(F)(F)F)n1` [compound 32], the cytotoxicity [3] is reported as “not cytotoxic”, the viability at 24 h, 10 µM [1] is reported as 77.7 ± 4.4% and the “MLS9 stability (residual substrate)” value [4] is reported as 99% ^b. It also gave an activity at 10 µM [2] of 33.2 ± 1.9% and an IC50 [2] of 9.6 ± 2.5 µM.

Work on `Cc1noc(-c2cnn(-c3ccc(NC(=O)c4snnc4C)cc3)c2C(F)(F)F)n1` [compound 33] yielded a cytotoxicity at 24 h, 10 µM [1] greater than 25%, a viability at 24 h, 10 µM [1] of 59.1 ± 6.3% and an activity at 10 µM [2] of 46.5 ± 2.8%.

With `Cc1noc(-c2cnn(-c3ccc(NC(=O)c4cc(Br)c[nH]4)cc3)c2C(F)(F)F)n1` [compound 35] the melting point was 205 to 206 °C and the activity at 10 µM [2] was 69.8 ± 2.9%.

For `COc1ccccc1NS(=O)(=O)c1cc(C(=O)Nc2ccc(-n3ncc(-c4nc(C)no4)c3C(F)(F)F)cc2)ccc1C` [compound 36], the activity at 10 µM [2] was 59.9 ± 4.2%.

Work on `CCCCCCCCCCCC(=O)Nc1ccc(-n2ncc(-c3nc(C)no3)c2C(F)(F)F)cc1` [compound 38] yielded an activity at 10 µM [2] of 53.8 ± 4.4%.

`Cc1noc(-c2cnn(-c3ccc(NC(=O)CCN4CCOCC4)cc3)c2C(F)(F)F)n1` [compound 39] showed an activity at 10 µM [2] of 95.9 ± 6.2%.

In the case of `Cc1noc(-c2cnn(-c3ccc(NC(=O)C4CCS(=O)(=O)CC4)cc3)c2C(F)(F)F)n1` [compound 40], the activity at 10 µM [2] is reported as 87.5 ± 3.8%.

In the case of `Cc1noc(-c2cnn(-c3ccc(NC(=O)COc4ccccc4)cc3)c2C(F)(F)F)n1` [compound 41], the activity at 10 µM [2] is reported as 63.6 ± 3.9%.

For `Cc1ccc(S(=O)(=O)Nc2ccc(-n3ncc(-c4nc(C)no4)c3C(F)(F)F)cc2)cc1` [compound 42], the cytotoxicity [3] was “not cytotoxic”, the viability at 24 h, 10 µM [1] was 79.4 ± 4.2% and the melting point was 149 to 150 °C. For the same molecule, the “MLS9 stability (residual substrate)” value [4] was 76% ^b, the activity at 10 µM [2] was 47.6 ± 4.2% and the IC50 [2] was 9.5 ± 1.7 µM.
